The values below come from patent publication US7576094B2, “Spiro derivatives as lipoxygenase inhibitors” (Eli Lilly and Company, priority 2004, dated 2009).

The test system of assay [1] is release of the leukotriene LTB4 from a neutrophil cell line (MPRO cell line). The experiment in a line: LTB4-Cell Assay. It is filed as cell-based. The settings on record: Mus musculus, 1 h, read-out: inhibition of LTB4 with an EC50. The method in brief:
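Mouse promyelocytic cells differentiated to neutrophils with 10 μM all-trans retinoic acid for 72 h, then stimulated with 1 μM A23187 plus compound for 1 h at 37° C. Supernatant LTB4 quantified by competitive EIA; 5 concentrations in quadruplicate from 10 μM top.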

Assay [2] has as its target T1, human recombinant 5-Lipoxygenase (Homo sapiens, UniProt P09917).
T1 sequence (P09917 1-674): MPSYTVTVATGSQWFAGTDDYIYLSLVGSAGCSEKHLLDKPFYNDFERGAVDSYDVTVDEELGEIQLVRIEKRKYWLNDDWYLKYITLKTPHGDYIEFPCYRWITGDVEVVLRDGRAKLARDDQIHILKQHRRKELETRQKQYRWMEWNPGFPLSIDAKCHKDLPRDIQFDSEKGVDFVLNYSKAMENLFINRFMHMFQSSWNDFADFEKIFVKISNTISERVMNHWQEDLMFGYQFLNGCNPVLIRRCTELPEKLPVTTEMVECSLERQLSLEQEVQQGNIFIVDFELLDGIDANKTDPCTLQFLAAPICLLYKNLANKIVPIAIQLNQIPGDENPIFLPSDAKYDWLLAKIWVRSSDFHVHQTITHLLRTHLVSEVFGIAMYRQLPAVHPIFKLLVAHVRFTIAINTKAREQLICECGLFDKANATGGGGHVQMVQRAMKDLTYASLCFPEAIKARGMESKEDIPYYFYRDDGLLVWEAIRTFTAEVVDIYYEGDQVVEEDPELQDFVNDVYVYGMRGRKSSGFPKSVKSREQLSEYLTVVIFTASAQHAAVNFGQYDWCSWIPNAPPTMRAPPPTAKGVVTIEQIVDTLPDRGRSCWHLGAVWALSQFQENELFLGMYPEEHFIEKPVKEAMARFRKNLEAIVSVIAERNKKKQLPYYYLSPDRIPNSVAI
As to the kind of experiment: 5-Lipoxygenase Enzyme Assay. The class given is biochemical. The settings on record: 70 μM arachidonic acid, 10 minute incubation at room temperature, FOX reagent, absorbance at 620 nm; read-out: inhibition of 5-Lipoxygenase with an IC50. The method in brief:
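Recombinant human 5-LOX in 50 mM Tris-HCl pH 7.4 was preincubated with compound, then 70 μM arachidonic acid was added for 10 min at room temperature. Hydroperoxide was read by FOX reagent (ferric xylenol orange, 1 h complex formation) as absorbance at 620 nm. Five concentrations in triplicate were tested, starting at 10 μM.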

In assay [3] the target is T2, porcine leukocyte 12/15-Lipoxygenase (Sus scrofa, UniProt P16469).
T2 sequence (P16469 1-663): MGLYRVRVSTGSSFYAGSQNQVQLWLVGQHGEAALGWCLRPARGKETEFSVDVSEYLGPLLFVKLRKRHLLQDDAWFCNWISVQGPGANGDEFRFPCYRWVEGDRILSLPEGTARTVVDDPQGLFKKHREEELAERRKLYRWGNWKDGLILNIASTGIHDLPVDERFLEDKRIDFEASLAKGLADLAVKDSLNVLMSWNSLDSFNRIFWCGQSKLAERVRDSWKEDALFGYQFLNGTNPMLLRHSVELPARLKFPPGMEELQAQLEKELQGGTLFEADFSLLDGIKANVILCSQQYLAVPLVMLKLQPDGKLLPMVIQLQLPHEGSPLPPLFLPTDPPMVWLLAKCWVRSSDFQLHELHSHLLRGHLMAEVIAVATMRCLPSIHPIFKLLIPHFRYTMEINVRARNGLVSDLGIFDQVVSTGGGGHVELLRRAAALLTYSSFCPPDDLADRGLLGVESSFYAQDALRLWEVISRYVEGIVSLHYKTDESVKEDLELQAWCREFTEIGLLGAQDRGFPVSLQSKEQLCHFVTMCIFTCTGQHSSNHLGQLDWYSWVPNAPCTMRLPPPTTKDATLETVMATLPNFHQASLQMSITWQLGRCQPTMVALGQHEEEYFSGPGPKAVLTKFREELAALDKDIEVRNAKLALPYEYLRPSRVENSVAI
As to the kind of experiment: 12/15-Lipoxygenase Enzyme Assay. The class given is biochemical. The settings on record: 70 μM arachidonic acid, 10 minute incubation at room temperature, FOX reagent, absorbance at 620 nm; read-out: inhibition of 12/15-Lipoxygenase with an IC50. The source says:
This procedure was used for measuring the enzymatic activity of porcine leukocyte 12/15-Lipoxygenase using a […] method based on the ferric oxidation of xylenol orange.
• 96 well flat bottom microfilter plates (VWR, Catalog # 62402-933 9295) • Lipoxygenase screening assay buffer (Cayman, Catalog # 760710) • Porcine leukocyte 12/15-Lipoxygenase (Cayman, Catalog # 60300) • Arachidonic Acid (Sigma, Catalog # A3555) • Xylenol orange tetrasodium salt (Aldrich, Catalog # 227854) • Iron (II) sulfate heptahydrate (Sigma, Catalog # F7002) • Sulfuric acid (95-98%) [18M] • Methanol Procedure
Porcine Leukocyte 12/15-Lipoxygenase (Cayman Cat # 60300) was used in this assay. Test compound and/or vehicle was added to 1.3 μL 12/15-Lipoxygenase in 50 mM Tris-HCl buffer, pH 7.4. The reaction was initiated by addition of 70 μM arachidonic acid in Tris-HCl buffer, pH 7.4, and terminated after a 10 minute incubation at room temperature by addition of FOX reagent (25 mM sulfuric acid, 100 μM xylenol orange, 100 μM iron (II) sulfate, methanol:water 9:1). The yellow color of acidified xylenol orange was converted to a blue color by the lipid hydroperoxide-mediated oxidation of Fe^2+ ions and the interaction of the resulting Fe^3+ ions with the dye. The complex was allowed to form during a 1 hour incubation at room temperature with shaking. Absorbance of the Fe^3+ complex was then measured at […] using a spectrophotometer.
Negative controls contained enzyme during the incubation step but substrate was not added until after the FOX reagent. Compounds are screened at 5 concentrations in triplicate starting at 10 μM

Assay [4] deals with LTB4 production in human whole blood. The experiment in a line: Inhibition of LTB4 Production in Blood. It is filed as cell-based. The settings on record: 1 h, 20 μM A23187, 60 minutes at 37° C., LTB4 in plasma by ELISA, read-out: protection against LTB4 at an EC50. Put shortly: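 Citrated human whole blood preincubated 15 min at 37 °C with compound (top final 30 μM, 1:3 dilutions, quadruplicate), then stimulated with 20 μM A23187 for 60 min at 37 °C. Plasma LTB4 quantified by ELISA; IC50 from percent inhibition versus vehicle.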
In general terms: In an ELISA, binding on a coated surface is turned into a signal by an enzyme label.

Usually EC50 stands for the concentration giving half of the maximal effect. `Cc1c(O)c(Cl)c(C)c2c1CCC1(CCC1)O2` [7-chloro-5,8-dimethyl-3,4-dihydrospiro[chromene-2,1′-cyclobutan]-6-ol]: in assay [1], the EC50 was less than 5 µM. Also, the IC50 in assay [2] was less than 300 nM; in assay [3] it was less than 5 µM.

For the compound `Cc1c(C)c2c(c(C)c1O)CC1(CCC1)CO2` [5,7,8-trimethylspiro[chroman-3,1′-cyclobutan]-6-ol], the EC50 in assay [4] was less than 10 µM. Further, the IC50 in assay [2] is less than 300 nM; in assay [3] it was less than 5 µM.

Consider `Cc1c(C)c2c(c(C)c1O)C=CC1(CCC1)S2` [5′,7′,8′-trimethylspiro[cyclobutane-1,2′-thiochromen]-6′-ol], for which the 50% effective concentration (EC50) in assay [1] is less than 5 µM. The IC50 in assay [2] was less than 300 nM; in assay [3] it was less than 5 µM.

`Cc1c(O)cc2c(c1C)N(c1cccc(O)c1)CC1(CCC1)C2` [1′-(3-hydroxyphenyl)-7′,8′-dimethyl-2′,4′-dihydro-1′H-spiro[cyclobutane-1,3′-quinolin]-6′-ol]: the IC50 in assay [2] is less than 300 nM; in assay [3], less than 5 µM.

`Cc1cc2c(c(C)c1O)C=C(c1cnco1)C1(CCC1)O2` [5,7-dimethyl-3-(1,3-oxazol-5-yl)spiro[chromene-2,1′-cyclobutan]-6-ol]: in assay [4], the EC50 was less than 10 µM. The IC50 in assay [2] was less than 300 nM; in assay [3], less than 5 µM.

Take `Cc1c(O)cc2c(c1C)N(c1ccc(O)cn1)CC1(CCC1)C2` [1′-(5-hydroxypyridin-2-yl)-7′,8′-dimethyl-2′,4′-dihydro-1′H-spiro[cyclobutane-1,3′-quinolin]-6′-ol]: the EC50 in assay [4] is less than 10 µM. In addition, the results for the IC50 in assay [2] and in assay [3] were less than 300 nM and less than 5 µM, respectively.

Regarding `Cc1cc2c(c(C)c1O)CC(c1cnco1)C1(CCC1)O2` (centres unmarked) [5,7-dimethyl-3-(oxazol-5-yl)spiro[chroman-2,1′-cyclobutan]-6-ol], the EC50 in assay [4] is less than 10 µM. Besides, the results for the IC50 in assay [2] and in assay [3] were less than 300 nM and less than 5 µM, respectively.

On to `CCN1CC2(CCC2)Cc2cc(O)c(C)c(C)c21` [1′-ethyl-7′,8′-dimethyl-2′,4′-dihydro-1′H-spiro[cyclobutane-1,3′-quinolin]-6′-ol], for which the IC50 in assay [3] was less than 5 µM.

As for `Cc1c(O)c(CCc2ccc3ccccc3n2)c(C)c2c1CCC1(CCC1)O2` [5,8-dimethyl-7-(2-(quinolin-2-yl)ethyl)spiro[chroman-2,1′-cyclobutan]-6-ol], the IC50 in assay [3] was less than 5 µM.

Take `Cc1c(O)c(C(C)(C)C)cc2c1CC1(CCC1)CN2c1ccc(O)cn1` [7′-tert-butyl-1′-(5-hydroxypyridin-2-yl)-5′-methyl-2′,4′-dihydro-1′H-spiro[cyclobutane-1,3′-quinolin]-6′-ol]: the IC50 in assay [3] is less than 5 µM.

For the compound `CC(C)c1cc2c(c(C(C)C)c1O)C=CC1(CCC1)O2` [5,7-diisopropylspiro[chromene-2,1′-cyclobutan]-6-ol], in assay [4], the EC50 was less than 10 µM. In addition, the IC50 in assay [2] was less than 300 nM; in assay [3], less than 5 µM.

With `CCCc1ccc(S(=O)(=O)NCCCN2CC3(CCC3)Cc3cc(O)c(C)c(C)c32)cc1` [N-(3-(6′-hydroxy-7′,8′-dimethyl-2′,4′-dihydro-1′H-spiro[cyclobutane-1,3′-quinoline]-1′-yl)propyl)-4-propylbenzenesulfonamide], in assay [4], the EC50 was less than 10 µM. Besides, the IC50 in assay [2] was less than 300 nM; in assay [3], less than 5 µM.

As to `COc1ccc(N2CC3(CCC3)Cc3cc(O)c(C)c(C)c32)cc1` [1′-(4-methoxyphenyl)-7′,8′-dimethyl-2′,4′-dihydro-1′H-spiro[cyclobutane-1,3′-quinolin]-6′-ol], the IC50 in assay [3] is less than 5 µM.

For the compound `Cc1c(C)c2c(c(C)c1OC(=O)CN1CCN(C)CC1)CCC1(CCC1)O2` [5,7,8-trimethyl-3,4-dihydrospiro[chromene-2,1′-cyclobutan]-6-yl-2-(4-methylpiperazin-1-yl)acetate], the IC50 in assay [3] was less than 5 µM.

Regarding `COc1cc2c(c(C)c1C)N(c1ccc(O)cc1)CC1(CCC1)C2` [4-(6′-methoxy-7′,8′-dimethyl-2′,4′-dihydro-1′H-spiro[cyclobutane-1,3′-quinoline]-1′-yl)phenol], the IC50 was less than 300 nM in assay [2] and less than 5 µM in assay [3].

Consider `Cc1ccc(N2CC3(CCC3)Cc3cc(O)c(C)c(C)c32)cc1` [7′,8′-dimethyl-1′-p-tolyl-2′,4′-dihydro-1′H-spiro[cyclobutane-1,3′-quinolin]-6′-ol], for which the IC50 in assay [2] is less than 300 nM; in assay [3], less than 5 µM.

Take `Cc1c(O)c(C(C)C)cc2c1C=CC1(CCC1)O2` [7-isopropyl-5-methylspiro[chromene-2,1′-cyclobutan]-6-ol]: the EC50 in assay [4] is less than 10 µM. For the same compound, the IC50 is less than 300 nM in assay [2] and less than 5 µM in assay [3].

For the compound `Cc1c(O)c(-c2cc3ccccc3o2)c(C)c2c1CCC(C)(C)O2` [7-(1-benzofuran-2-yl)-2,2,5,8-tetramethylchroman-6-ol], in assay [3], the IC50 is less than 5 µM.

Turning to `Cc1c(O)cc2c(c1C)N(c1ccc(Cl)cc1)CC1(CCC1)C2O` (centres unmarked) [1′-(4-chlorophenyl)-7′,8′-dimethyl-2′,4′-dihydro-1′H-spiro[cyclobutane-1,3′-quinoline]-4′,6′-diol], the IC50 in assay [3] is less than 5 µM.

For `COc1c(C(C)(C)C)cc2c(c1C)CC1(CCC1)CN2c1ccc(O)cn1` [6-(7′-tert-butyl-6′-methoxy-5′-methyl-2′,4′-dihydro-1′H-spiro[cyclobutane-1,3′-quinoline]-1′-yl)pyridin-3-ol], the IC50 in assay [3] was less than 5 µM.

Regarding `Cc1c(O)c(C(C)C)cc2c1CCC1(CCC1)O2` [7-isopropyl-5-methyl-3,4-dihydrospiro[chromene-2,1′-cyclobutan]-6-ol], the EC50 in assay [4] is less than 10 µM. For the same compound, the IC50 in assay [2] is less than 300 nM; in assay [3], less than 5 µM.

`CCc1cc2c(c(CC)c1O)C=CC1(CCC1)O2` [5,7-diethylspiro[chromene-2,1′-cyclobutan]-6-ol]: the EC50 in assay [4] was less than 10 µM. The IC50 in assay [2] was less than 300 nM; in assay [3], less than 5 µM.
